Data on one compound can be found in patent publication US20210198629A1, “COMPOSITIONS AND METHODS FOR INCREASING BEIGING OF WHITE ADIPOSE TISSUE” (University of Georgia Research Foundation, Inc., priority 2018, published 2021).

Holding throughout (format): in vivo, mouse
Experiment [1] has as its system type 2 diabetic DIO mice. Put plainly: Blood glucose, HbA1c, HOMA-IR, IPGTT, IPITT in DIO mice after oral BI-7273. As to the method:
Blood samples were taken from the tail vein and measured on HbA1c cartridges (5035C) loaded in a DCA Vantage Analyzer (Siemens).
IPGTT was performed after 16 hrs fasting. Glucose (2 g kg^−1 body weight) was injected intraperitoneally. Blood samples were taken from the tail vein. Glucose levels were measured at 0, 15, 30, 60, and 120 min after glucose injection using a glucometer (OneTouch, Ultra 2).
IPITT was performed after 6 hrs fasting. Insulin (0.75 U kg^−1 body weight, Roche Risch-Rotkreuz, Switzerland) was injected intraperitoneally. Blood samples were taken from the tail vein. Glucose levels were measured at 0, 15, 30, 60, and 120 min after insulin injection using a glucometer (OneTouch, Ultra 2).
Next, whether BI-7273 oral administration is sufficient to protect DIO models from type 2 diabetes was investigated. Before gavage (3 months after HFD feeding), DIO models developed diabetes as evidenced by 1) averaged random non-fasting blood glucose level at ˜250 mg/dL; and 2) averaged glycated hemoglobin (HbA1c) level at 6.5% (FIG. 6A, B). […] Upon HFD feeding, C57BL/6 mice are predisposed to type 2 diabetes, which is characterized by insulin resistance (averaged HOMA-IR index=95; FIG. 6C)(32). BI-7273 oral administration lowered HOMA-IR index (to ˜55%; FIG. 6C), indicating much improved β-cell function and insulin resistance.

Experiment [2] concerns DIO mice. Put plainly: Indirect calorimetry of DIO mice after oral BI-7273. How it is done:
Indirect calorimetry was performed on a Columbus Instruments CLAMS system equipped with 8 metabolic cages. Oxygen consumption (VO2; ml/min) and carbon dioxide production (VCO2; ml/min) were measured at 22° C. with 12-hr:12-hr dark:light cycles. Total energy expenditure was estimated using the equation published before […]). Data were normalized to the body weight of each animal. Physical activity is measured by counting infrared beam breaking events.
Next, whether oral administration of BI-7273 is sufficient to increase the whole-body energy expenditure was investigated. DIO models were gavaged with BI-7273 or control 0.5% Natrosol for 14 days as described above and later housed individually in metabolic cages for 10 days. […] HFD-fed control DIO models had very low respiratory exchange ratios (RER; ˜0.6 in light cycles and 0.72 in dark cycles), which is consistent with their high lipid utilization and insulin resistance (IR) states.

In experiment [3] the test system is iWAT and eWAT of diet-induced obesity (DIO) mice. Put plainly: Oral BI-7273 in DIO mice: WAT beiging, H/E, UCP1 IHC, RT-qPCR, mitochondrial copy number. To be noted: for mRNA levels of Ucp1, increase: vs control mice. As to the method: All animal studies were approved by the University of Georgia Institutional Animal Care and Use Committee (IACUC) and performed strictly following the guidelines Animals were housed in a temperature-controlled (22° C.) environment with 12:12-hrs light:dark cycle and allowed food and water […]. All mouse strains were purchased from the Jackson Laboratory: C57BL/6J: #000664; Ucp1-Cre: #024670; ROSA-INTACT: #021039. To generate diet-induced obesity and type 2 diabetes models, 8-week old C57BL/6J mice (both males and females) were fed with a high-fat diet (60% fat, Research Diet, catelog #D12492) for […]. To perform gavage feeding, animals were immobilized by hands and a gavage solution (0.5% Natrosol or 0.5% Natrosol containing BI-7273, […]) was administered through a 1 mL syringe equipped with a disposable gavage needle.
For histology, iWAT was excised from mice and fixed with 10% formalin, dehydrated and embedded in paraffin. The sliced tissue (5 μm) was stained with hematoxylin and eosin Y (Sigma Aldrich). Cell size was quantified by NIH ImageJ (ver 1.47t). Alternative sections were used for immunohistochemistry detection of UCP1 and H/E staining. Paraffin sections were antigen unmasked with Tris-EDTA buffer (10 mM Tris Base, 1 mM EDTA, 0.05% Tween 20, pH 9.0) in 93° C. for 15 min. Sections were blocked with blocking solution (10% normal goat serum and 1% BSA in PBS) for 1 hr at room temperature and incubated with the primary antibody (anti-UCP1, 1:200 diluted in blocking solution) overnight at 4° C. The endogenous peroxidase was quenched with 3% hydrogen peroxide. Sections were incubated with the secondary antibody for 1 hr at room temperature. Slides were developed with DAB (VectorLab) for 5 min followed with hemotoxylin conterstaining for 1 min. Color images were captured on a Leica DM4000B microscope equipped with a DFC450c camera.
Total RNA was isolated from tissue or cell culture using TRIzol. Total RNA (500 ng) from tissues or cell culture was used in 25 μL reverse transcription reactions (Maxima; Life technologies) and diluted into 250 μL. Diluted cDNA (2 μL) was used in quantitative PCR reactions (SsoAdvanced™ Universal SYBR Green mix; Bio-Rad) on a BioRad CFX384™ Real-Time PCR Detection System. Cq-values were determined and expression values were calculated by BioRad CFX Manager™ Software. Relative mRNA expression values were normalized to inner reference genes Rps18 and Tbp of each biological sample. For mitochondrial copy number qPCR, mitochondrial Cox2 gene was amplified and normalized to genomic β-globin gene.
[…]. The efficacy of BI-7273 in inducing beige adipocyte formation in vivo was tested within diet-induced obesity (DIO) and type 2 diabetes mouse models. To generate DIO models, adult C57BL/6 mice (8-week age, both males and females) were fed with a high-fat diet (HFD; 60% calories from fat) for 12 weeks. To administer BI-7273, BI-7273 mixed in 0.5% Natrosol (100 mg/kg/day, 200 uL) was gavaged for 14 days. For the control mice, 0.5% Natrosol in the same volume was gavaged during the same period. The high-fat diet was changed to the normal chow during gavaging to maximize the uptake of BI-7273. DIO models of control and BI-7273 treatment groups were euthanized after 14-day of gavaging and adipose tissues (iWAT and eWAT) were subjected to H/E staining and UCP1 immunohistochemistry (IHC) to identify beige adipocytes. […].
In general terms: Real-time PCR tracks product formation cycle by cycle.

Setting [4] is: 14-day oral administration, 1 month HFD refeeding.
The mark [5] stands for this setting: light and dark cycles, after 14-day gavage.
[6] abbreviates: eWAT, 100 mg/kg/day gavage for 14 days.
The mark [7] stands for this setting: iWAT, 100 mg/kg/day gavage for 14 days.

For `COc1cc(-c2cn(C)c(=O)c3cnccc23)cc(OC)c1CN(C)C` [BI-7273, 4-[4-[(dimethylamino)methyl]-3,5-dimethoxyphenyl]-2-methyl-2,7-naphthyridin-1-one], the HbA1c level in experiment [1] (100 mg/kg/day oral for 14 days, 6.5% before gavage) was roughly 5%. Further, the “random non-fasting blood glucose level” value in experiment [1] (100 mg/kg/day oral for 14 days, ~250 mg/dL before gavage) is reported as 130 mg/dL. Moreover, in experiment [1] (setting [4]), the “glucose tolerance (IPGTT)” value is “drastically improved” and the “insulin sensitivity (IPITT)” value is “drastically improved”. This compound returned an HOMA-IR index in experiment [1] (oral administration, averaged index 95 upon HFD feeding) of roughly 55%. Further, in experiment [2] (light and dark cycles), the “respiratory exchange ratio (RER)” value is on record as “markedly increased”. In experiment [2] (setting [5]), the “oxygen consumption (VO2)” value is listed as “drastically increased” and the “total energy expenditure (E.E.)” value is on record as “drastically increased”. Also, the physical activity result in experiment [2] (vs control, light or dark cycles) is on record as “comparable”. For the same compound, in experiment [3] (setting [6]), the “mRNA levels of Pgc1β, increase” value is recorded as 4.9 fold and the “mRNA levels of Ucp1, increase” value was 6 fold. The Pgc1β expression entry in experiment [3] (iBAT, limb muscles (TA, EDL), and liver) was “increased”. The “other beige adipocyte markers (Cedia, Dio2, Elovl3, Cox8b)” value in experiment [3] (iWAT and eWAT, 100 mg/kg/day gavage for 14 days) was “increased”. Besides, the “overall size of adipocytes” value in experiment [3] (iWAT and eWAT, 100 mg/kg/day gavage for 14 days, H/E) is “overtly reduced”. Also, in experiment [3] (iWAT and eWAT, 100 mg/kg/day gavage for 14 days, UCP1 IHC), the “multiocular UCP1+pos beige adipocytes” value was “induced the formation”. Further, in experiment [3] (iWAT or eWAT, 100 mg/kg/day gavage for 14 days), the “Pgc1α mRNA levels” value is on record as “not affected”. In experiment [3] (iWAT, eWAT, iBAT, limb muscles, liver), the “mitochondrial genome copy number, higher than control DIO mice” value is given as 2.5-8.5 folds. In experiment [3] (setting [7]), the “mRNA levels of Pgc1β, increase” value worked out at 3.8 fold and the “mRNA levels of Ucp1, increase” value is on record as 22 fold.
